From patent publication US9249098B2 (priority 2012, dated 2016)
Like-named read-outs stand apart in the source and are kept apart here.

How the values were obtained:
[1] = biological target: T1, acetylcholinesterase (AChE) (Electrophorus electricus, UniProt O42275); assay: biochemical; conditions: room temperature, pH 8, acetylthiocholine iodide substrate; read-out: IC50, inhibition of AChE enzyme activity
T1 construct: purchased Sigma C2888
Method: Enzymatic assay. […] The purified/synthesized compounds or compound mixtures were tested. Assay kit was from Invitrogen. AChE enzyme was from Sigma or prepared from human erythrocyte. Acetylcholine and other reagents and buffers were from Sigma. The assay solution consisted of 0.1 M phosphate buffer pH 8, 0.5 mM 5,5′-dithiobis (2-nitrobenzoic acid) (DTNB, Ellman's reagent), 0.01 unit acetylcholinesterase (Sigma Cat. No. C2888), and 0.5 mM acetylthiocholine iodide (ATCI) as the substrate. Test compounds were added to the assay solution and pre-incubated with the enzyme for 5 min at room temperature before addition of the substrate. […] Duplicate sampling was made for each sample. Test compound inhibition to enzyme activity was calculated relative to the positive control without presence of test compound. Negative controls were samples without enzyme.
Experimental procedures were described in the embodiments of this invention.

in vivo [2] = conditions: male, Sprague-Dawley, plasma, rat
Method: Pharmacokinetics (PK) measurement. […] A total of 6 male experimental SD rats, approximately 8 weeks of age (180-250 g body weight) were used. For intravenous bolus injection (IV), the animals were placed in a polycarbonate restraint device and dosed via the tail vein. For oral dose (PO), the animals were dosed via oral gavage. […] The plasma samples were extracted by protein precipitation using 4 volume of CH3CN containing fixed concentration of internal standard compound (IS). The concentrations of analyte in plasma were determined using a high performance liquid chromatography/mass spectrometry (HPLC/MS/MS) method (Shimadzu LC-10ADVP and a Leap autosampler, Thermo Hypersil C18, 50 mm×2.1 mm, Mobile phase A: 0.1% formic acid; B: MeCN, Elution rate: 500 μL/min, Column temperature: 25° C., Injection volume: 10 μL, reverse phase elution from 10% organic to 90% organic in 5 min, Applied Biosystems API3000 triple-quadrupole instrument with a Turbo Ions Spray interface). The data acquisition and data processing were done using Analyst 1.4 software.
Experimental animal used were male Sprague-Dawley rats from Shanghai Sino-British SIPPR/BK Lab Animal Ltd, approximately 8 weeks of age (180-250 g body weight).

[3] = Acute toxicity in mice (LD50); conditions: both sexes, mouse, in vivo; CD-1 mice, dosed orally (PO), 7-day acute toxicity
Method: Animal toxicological tests. 7-day acute toxicity evaluation was done for selected compounds of this invention on mice and rats. Male and female CD-1 mice (25-30 grams) or SD rats (150-240 grams) were used. The animals were acclimated for 1 week prior to the experiment. The test compounds were dissolved in saline and were dosed orally (PO). Five groups (3 doses plus 1 vehicle and 1 naïve) and 10 mice per group (half male and half female) were used for each compound. All animals were fasted overnight before study. After dosing, animals were placed individually in soft-bedding cages without cage covers. Animal behavioral changes were continuously monitored for 4 hours including autonomic abnormalities (salivation, lacrimation, piloerection, yawning, palpebral closures), neuromuscular abnormalities (posture, gait, fasciculation, convulsions), stereotypical behaviors (sleep, alert, hyper/hypo-activity, slow patterned, fast patterned, restricted, dyskinetic-reactive signs etc.) and lethality. Observations for general health, mortality and moribundity were conducted twice daily after 24 hours. All animals surviving the 7-day observation period were sacrificed by carbon dioxide asphyxiation. Gross necropsies were performed on all animals sacrificed including examinations of main organs and tissue (lung, liver, kidney, heart, intestine, brain).
Acute toxicity for selected compounds of this invention was measured in mice according to the procedure illustrated in the embodiments. Male and female CD-1 mice (n=2-5/gender/compound dose, 25-32 grams) were from Shanghai Sino-British SIPPR/BK Lab Animal Ltd. Table 4 lists toxicology study observations for selected compounds.

in vivo [4] = conditions: male, Sprague-Dawley, plasma, rat, read-out: T½ (terminal half life) (converted)
[5] = IV (intravenous), read-out: F (bioavailability)
[6] = PO (oral), read-out: F (oral bioavailability)
[7] = SC (subcutaneous), read-out: F (bioavailability)

T1 sequence (O42275 24-633): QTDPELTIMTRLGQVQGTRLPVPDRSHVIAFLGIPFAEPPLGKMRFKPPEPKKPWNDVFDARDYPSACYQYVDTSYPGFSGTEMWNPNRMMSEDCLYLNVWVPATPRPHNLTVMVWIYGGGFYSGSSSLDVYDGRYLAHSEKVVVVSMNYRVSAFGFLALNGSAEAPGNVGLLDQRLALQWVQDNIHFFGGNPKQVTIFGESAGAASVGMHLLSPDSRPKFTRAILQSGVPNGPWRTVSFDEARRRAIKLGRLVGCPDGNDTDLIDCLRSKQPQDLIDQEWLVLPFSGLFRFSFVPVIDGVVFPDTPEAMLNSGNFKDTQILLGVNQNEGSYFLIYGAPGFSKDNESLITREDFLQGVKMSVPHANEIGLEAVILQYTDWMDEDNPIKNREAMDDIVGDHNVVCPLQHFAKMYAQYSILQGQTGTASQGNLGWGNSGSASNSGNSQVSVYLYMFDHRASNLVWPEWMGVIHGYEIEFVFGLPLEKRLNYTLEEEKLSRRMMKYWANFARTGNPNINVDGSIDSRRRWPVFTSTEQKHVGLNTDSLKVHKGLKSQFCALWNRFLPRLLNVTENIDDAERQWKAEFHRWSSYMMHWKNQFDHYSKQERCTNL

SMILES	IC50 [1]	bioavailability (in vivo [2]; [5])	bioavailability (in vivo [2]; [6])	bioavailability (in vivo [2]; [7])	LD50 at 7 day [3]	half-life (in vivo [4]; IV (intravenous))	half-life (in vivo [4]; PO (oral))	half-life (in vivo [4]; SC (subcutaneous))
COc1cc2c(cc1OC)C(=O)C(F)(CC1(F)CCN(Cc3ccccc3)CC1)C2 (stereo not drawn) [IV-8, 2-((1-benzyl-4-fluoropiperidin-4-yl)methyl)-2-fluoro-5,6-dimethoxy-2,3-dihydro-1H-inden-1-one]	9.07 nM	100%	37.2%	70.5%	> 45 mg/kg	8.5 h	12.7 h	6.8 h
COc1cc2c(cc1OC)C(=O)C(F)(CC1(F)CCN(Cc3ccc(F)cc3)CC1)C2 (stereo not drawn) [IV-11, 2-fluoro-2-((4-fluoro-1-(4-fluorobenzyl)piperidin-4-yl)methyl)-5,6-dimethoxy-2,3-dihydro-1H-inden-1-one]	28.2 nM	100%	28.2%	100%	> 50 mg/kg	3.1 h	11.8 h	7.9 h
COc1cc2c(cc1OC)C(=O)C(CC1(F)CCN(Cc3ccccc3)CC1)C2 (stereo not drawn) [IV-4, 2-((1-benzyl-4-fluoropiperidin-4-yl)methyl)-5,6-dimethoxy-2,3-dihydro-1H-inden-1-one]	1.04 nM	–	–	–	30 mg/kg	–	–	–
